# From PubChem BioAssay (NCI)
# Where “and” joins values, the source holds several entries; their conditions need not be identical. Identical values can stand only once.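 Five compound concentrations were applied to cells in 96-well plates for 48 hours; endpoints were derived by simple linear interpolation of the resulting dose-response curve. Abbreviation: GI50, concentration required for 50% inhibition of growth. Definition used: TGI = concentration required for complete inhibition of growth.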
# Assays:
# Assay in all cases: DTP human tumour cell line panel, 48 h
# OVCAR-3 ovarian = tested on: OVCAR-3 ovarian
# UO-31 renal = tested on: UO-31 renal
# SK-MEL-2 melanoma = tested on: SK-MEL-2 melanoma
# A498 renal = tested on: A498 renal
# SF-295 CNS = tested on: SF-295 CNS
# U251 CNS = tested on: U251 CNS
# A549 NSCLC = tested on: A549 NSCLC
# RPMI-8226 leukemia = tested on: RPMI-8226 leukemia
# CAKI-1 renal = tested on: CAKI-1 renal
Structure (SMILES),TGI (OVCAR-3 ovarian),TGI (UO-31 renal) [µM],TGI (SK-MEL-2 melanoma) [µM],TGI (A498 renal),TGI (SF-295 CNS) [µM],TGI (U251 CNS) [µM],TGI (A549 NSCLC) [µM],TGI (RPMI-8226 leukemia) [µM],TGI (CAKI-1 renal) [µM],GI50 (OVCAR-3 ovarian),GI50 (UO-31 renal),GI50 (SK-MEL-2 melanoma) [µM],GI50 (A498 renal),GI50 (SF-295 CNS),GI50 (U251 CNS),GI50 (A549 NSCLC),GI50 (RPMI-8226 leukemia),GI50 (CAKI-1 renal)
O=C(O)c1nnsc1COCc1ccccc1,> 100 µM,> 100,> 100,> 100 µM,> 100,> 100,> 100,> 100,> 100,,,,,,,,,
Cc1ccc(-c2cc3nc(-c4ccccc4)nc(C(Cl)Cl)n3n2)cc1,1.47 µM,1.41,19.7,1.39 µM,1.95,1.6,2.63,3.45,1.33,0.737 µM,0.719 µM,2.51,0.672 µM,0.955 µM,0.419 µM,0.927 µM,0.802 µM,0.668 µM
OC1CCC(Oc2cccc3cnc(Nc4ccc5nc[nH]c5c4)nc23)CC1 (stereo not given),19.4 µM,1.88,2.93,0.866 µM,12,15.7,19.7,0.659,21.5,0.423 µM,0.227 µM,0.873,0.335 µM,0.429 µM,0.428 µM,0.404 µM,0.219 µM,0.497 µM
COc1ccc([N+](=O)[O-])c2c(NCC(O)CO)ccnc12 (stereo not given),70 µM,> 100,71.9,76.9 µM,> 100,> 100,> 100,> 100,> 100,,,,,,,,,
Cc1ccc2c(c1)sc(-c1ccc(N(C)C)cc1)[n+]2C,15 µM,> 100,> 38,8.16 µM,> 22.8,> 76,,5.15,> 56.2,0.685 µM,18.9 µM,4.25,0.785 µM,0.72 µM,0.467 µM,0.741 µM,0.13 µM,8.84 µM
O=[N+]([O-])/C=C\c1ccc2c(c1)OCO2,15.2 µM,3.2,4.99,8.14 µM,26.5,5.02,5.23,5.07,7.36,4.1 µM,1.59 µM,2.2,1.37 µM,11.5 µM,1.95 µM,2.34 µM,1.77 µM,1.69 µM
CN(C)CCNC(=O)c1cccc(CO)c1[N+](=O)[O-],> 100 µM,> 100,> 100,> 100 µM,> 100,> 100,> 100,,> 100,,,,,,,,,
ClCCn1cnc2c(SCc3ccccc3)ncnc21,> 100 µM,39.4,> 100,74.6 µM,> 100,> 100,76.5,35.5,> 100,7.45 µM,2.13 µM,2.24,3.23 µM,3.12 µM,0.623 µM,1.22 µM,0.73 µM,8.86 µM
Cn1cnc([N+](=O)[O-])c1Sc1ncnc2nc[nH]c12,75.9 µM and > 80.2 µM,> 100,> 100,82 µM and > 100 µM,> 100,> 100,> 100,> 100,> 100,2.92 µM and 3.23 µM,2.39 µM and 14.8 µM,,8.55 µM and 26.1 µM,1.61 µM and 9.82 µM,13.9 µM and 27.7 µM,40 µM and > 67.3 µM,3.18 µM and 1.55 µM,2.6 µM and 5.07 µM
Cc1ccc(N2C(=O)C(Cl)=C(Nc3cccc(O)c3)C2=O)cc1Cl,28.9 µM,75.8,> 100,25.5 µM,36.5,31,29.7,28.6,34.6,15.3 µM,26.1 µM,38,12.4 µM,17.8 µM,15.7 µM,12.8 µM,3.95 µM,17 µM
O=Nc1c2cccnc2n2nnc3ccc(Cl)cc3c12,1.45 µM,9.51,13.3,10.3 µM,16.2,13.2,23.8,1.7,2.35,0.447 µM,1.05 µM,3.6,3.34 µM,4.24 µM,2.57 µM,3.98 µM,0.258 µM,0.436 µM
COc1cccc2c(=O)c3c(sc12)c(NCCCN)nc1ccccc13,2.91 µM,2.18,4.15,3.15 µM,3.25,,,4.92,2.82,1.41 µM,0.832 µM,2,1.68 µM,1.77 µM,,,2.11 µM,1.48 µM
CCOC(=O)/C(C1=CC(=O)C(=O)c2ccccc21)=C(/C)NCc1ccccc1,0.935 µM,> 100,> 100,10.4 µM,3.68,,6.42,0.432,3.58,0.218 µM,3.35 µM,5.87,4.77 µM,1.76 µM,0.606 µM,2.4 µM,0.184 µM,1.61 µM
O=C1NC(=O)C(c2ccccc2Cl)=C1Nc1cccc(O)c1,> 25 µM,> 25,> 25,> 25 µM,> 25,> 25,> 25,> 25,> 25,4.95 µM,7.24 µM,1.99,6.49 µM,8.32 µM,9.32 µM,11.2 µM,21.4 µM,4.41 µM
OCCCNCc1ccccn1,> 100 µM,> 100,> 100,> 100 µM,> 100,> 100,> 100,> 100,> 100,,,,,,,,,
CC(=O)O/C(C)=C\C(=O)O/N=C(\N)c1ccc(C)cc1,> 100 µM,> 100,72.3,> 100 µM,> 100,40.5,> 100,> 100,> 100,,,,,,,,,
